Reference: PubChem BioAssay (NCI)
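At the GI50, growth is halved. TGI marks complete inhibition of growth.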

Tests used:
Assay in all cases: NCI tumour cell line growth inhibition, 384-well format
786-0 renal = system: 786-0 renal
A498 renal = system: A498 renal
A549 NSCLC = system: A549 NSCLC
ACHN renal = system: ACHN renal
BT-549 breast = system: BT-549 breast
CAKI-1 renal = system: CAKI-1 renal
CCRF-CEM leukemia = system: CCRF-CEM leukemia
COLO 205 colon = system: COLO 205 colon
DU-145 prostate = system: DU-145 prostate
EKVX NSCLC = system: EKVX NSCLC
HCC-2998 colon = system: HCC-2998 colon
HCT-15 colon = system: HCT-15 colon
HL-60(TB) leukemia = system: HL-60(TB) leukemia
HOP-62 NSCLC = system: HOP-62 NSCLC
HOP-92 NSCLC = system: HOP-92 NSCLC
HS 578T breast = system: HS 578T breast
HT29 colon = system: HT29 colon
IGROV1 ovarian = system: IGROV1 ovarian
KM12 colon = system: KM12 colon
M14 melanoma = system: M14 melanoma
MCF7 breast = system: MCF7 breast
MDA-MB-231 breast = system: MDA-MB-231 breast
MDA-MB-435 melanoma = system: MDA-MB-435 melanoma
MDA-MB-468 breast = system: MDA-MB-468 breast
MOLT-4 leukemia = system: MOLT-4 leukemia
NCI-H226 lung = system: NCI-H226 lung
NCI-H23 lung = system: NCI-H23 lung
NCI-H322M lung = system: NCI-H322M lung
NCI-H460 NSCLC = system: NCI-H460 NSCLC
NCI-H522 lung = system: NCI-H522 lung
NCI/ADR-RES ovarian = system: NCI/ADR-RES ovarian
OVCAR-3 ovarian = system: OVCAR-3 ovarian
OVCAR-4 ovarian = system: OVCAR-4 ovarian
OVCAR-5 ovarian = system: OVCAR-5 ovarian
OVCAR-8 ovarian = system: OVCAR-8 ovarian
PC-3 prostate = system: PC-3 prostate
RPMI-8226 leukemia = system: RPMI-8226 leukemia
RXF 393 renal = system: RXF 393 renal
SF-268 CNS = system: SF-268 CNS
SF-295 CNS = system: SF-295 CNS
SF-539 CNS = system: SF-539 CNS
SK-MEL-2 melanoma = system: SK-MEL-2 melanoma
SK-MEL-28 melanoma = system: SK-MEL-28 melanoma
SK-MEL-5 melanoma = system: SK-MEL-5 melanoma
SK-OV-3 ovarian = system: SK-OV-3 ovarian
SN12C renal = system: SN12C renal
SNB-19 CNS = system: SNB-19 CNS
SNB-75 CNS = system: SNB-75 CNS
SR leukemia = system: SR leukemia
SW-620 colon = system: SW-620 colon
T-47D breast = system: T-47D breast
TK-10 renal = system: TK-10 renal
U251 glioblastoma = system: U251 glioblastoma
UACC-257 melanoma = system: UACC-257 melanoma
UACC-62 melanoma = system: UACC-62 melanoma

O=C1c2ccccc2-c2n[nH]c3cccc1c23
GI50 (786-0 renal): 19.2 µM | TGI (786-0 renal): > 100 µM | GI50 (A498 renal): 3 µM | TGI (A498 renal): 84.6 µM | GI50 (A549 NSCLC): 15.8 µM | TGI (A549 NSCLC): > 100 µM | GI50 (ACHN renal): 11 µM | TGI (ACHN renal): 46.8 µM | GI50 (BT-549 breast): 3.72 µM | TGI (BT-549 breast): 49.7 µM | GI50 (CAKI-1 renal): 3.39 µM | TGI (CAKI-1 renal): 14.9 µM | GI50 (CCRF-CEM leukemia): 6 µM | TGI (CCRF-CEM leukemia): 25.2 µM | GI50 (COLO 205 colon): 10.3 µM | TGI (COLO 205 colon): 26 µM | GI50 (DU-145 prostate): 14.7 µM | TGI (DU-145 prostate): > 100 µM | GI50 (EKVX NSCLC): 4.49 µM | TGI (EKVX NSCLC): > 100 µM | GI50 (HCC-2998 colon): 3.74 µM | TGI (HCC-2998 colon): 43.5 µM | GI50 (HCT-15 colon): 4.63 µM | TGI (HCT-15 colon): > 100 µM | GI50 (HL-60(TB) leukemia): 10.4 µM | TGI (HL-60(TB) leukemia): > 100 µM | GI50 (HOP-62 NSCLC): 14.8 µM | TGI (HOP-62 NSCLC): 69.1 µM | GI50 (HOP-92 NSCLC): 20 µM | TGI (HOP-92 NSCLC): > 100 µM | GI50 (HS 578T breast): 5.63 µM | TGI (HS 578T breast): 71.2 µM | GI50 (HT29 colon): 11.4 µM | TGI (HT29 colon): > 100 µM | GI50 (IGROV1 ovarian): 4.82 µM | TGI (IGROV1 ovarian): 64.6 µM | GI50 (KM12 colon): 2.78 µM | TGI (KM12 colon): > 100 µM | GI50 (M14 melanoma): 5.93 µM | TGI (M14 melanoma): 58.9 µM | GI50 (MCF7 breast): 37.4 µM | TGI (MCF7 breast): > 100 µM | GI50 (MDA-MB-231 breast): 13.9 µM | TGI (MDA-MB-231 breast): > 100 µM | GI50 (MDA-MB-435 melanoma): 17.4 µM | TGI (MDA-MB-435 melanoma): > 100 µM | GI50 (MDA-MB-468 breast): 2.72 µM | TGI (MDA-MB-468 breast): 12.5 µM | GI50 (MOLT-4 leukemia): 1.74 µM | TGI (MOLT-4 leukemia): 3.76 µM | GI50 (NCI-H226 lung): 2.26 µM | TGI (NCI-H226 lung): 11.7 µM | GI50 (NCI-H23 lung): 19.8 µM | TGI (NCI-H23 lung): > 100 µM | GI50 (NCI-H322M lung): 32.4 µM | TGI (NCI-H322M lung): > 100 µM | GI50 (NCI-H460 NSCLC): 6.56 µM | TGI (NCI-H460 NSCLC): 37.6 µM | GI50 (NCI-H522 lung): 7.22 µM | TGI (NCI-H522 lung): 53.5 µM | GI50 (NCI/ADR-RES ovarian): 53.9 µM | TGI (NCI/ADR-RES ovarian): > 100 µM | GI50 (OVCAR-3 ovarian): 20.2 µM | TGI (OVCAR-3 ovarian): > 100 µM | GI50 (OVCAR-4 ovarian): 32 µM | TGI (OVCAR-4 ovarian): > 100 µM | GI50 (OVCAR-5 ovarian): 17.8 µM | TGI (OVCAR-5 ovarian): > 100 µM | GI50 (OVCAR-8 ovarian): 22.1 µM | TGI (OVCAR-8 ovarian): > 100 µM | GI50 (PC-3 prostate): 20.8 µM | TGI (PC-3 prostate): > 100 µM | GI50 (RPMI-8226 leukemia): 4.09 µM | TGI (RPMI-8226 leukemia): 30 µM | GI50 (RXF 393 renal): 11.7 µM | TGI (RXF 393 renal): 81.4 µM | GI50 (SF-268 CNS): 5.72 µM | TGI (SF-268 CNS): 57 µM | GI50 (SF-295 CNS): 34.1 µM | TGI (SF-295 CNS): > 100 µM | GI50 (SF-539 CNS): 8.72 µM | TGI (SF-539 CNS): 97.4 µM | GI50 (SK-MEL-2 melanoma): 5.03 µM | TGI (SK-MEL-2 melanoma): 17 µM | GI50 (SK-MEL-28 melanoma): 74.8 µM | TGI (SK-MEL-28 melanoma): > 100 µM | GI50 (SK-MEL-5 melanoma): 5.77 µM | TGI (SK-MEL-5 melanoma): 26.6 µM | GI50 (SK-OV-3 ovarian): 3.03 µM | TGI (SK-OV-3 ovarian): 14.6 µM | GI50 (SN12C renal): 23.3 µM | TGI (SN12C renal): > 100 µM | GI50 (SNB-19 CNS): 45.1 µM | TGI (SNB-19 CNS): > 100 µM | GI50 (SNB-75 CNS): 1.87 µM | TGI (SNB-75 CNS): 41.5 µM | GI50 (SR leukemia): 2.38 µM | TGI (SR leukemia): 6.99 µM | GI50 (SW-620 colon): 11.7 µM | TGI (SW-620 colon): > 100 µM | GI50 (T-47D breast): 21.5 µM | TGI (T-47D breast): > 100 µM | GI50 (TK-10 renal): 4.21 µM | TGI (TK-10 renal): > 100 µM | GI50 (U251 glioblastoma): 9.02 µM | TGI (U251 glioblastoma): > 100 µM | GI50 (UACC-257 melanoma): 27.9 µM | TGI (UACC-257 melanoma): > 100 µM | GI50 (UACC-62 melanoma): 15.5 µM | TGI (UACC-62 melanoma): > 100 µM
